According to patent US20250170266A1 (ZYMEWORKS BC INC., priority 2022, published 2025):
Read-outs that look alike come from different tables or passages of the source.

Key:
Type in all cases: cell-based
[1] = test system: Human peripheral blood mononuclear cells (PBMCs); assay: Human PBMC Assay, cytokine release (HTRF); settings: 24 hours; for EC50: PBMC
Source text: Human peripheral blood mononuclear cells (PBMCs) were isolated from fresh Leukopak using magnetic separation. Briefly, erythrocytes and granulocytes were magnetically labeled with Erythrocyte Depletion MicroBeads (Miltenyi Biotec) and Granulocyte Depletion MicroBeads (Miltenyi Biotec), respectively. The cell suspension was loaded onto a Multi-24 Column Block (Miltenyi Biotec) and placed in the magnetic field of a MultiMACS Cell24 Separator Plus (Miltenyi Biotec). The unlabelled PBMCs were collected in the run through. PBMCs were resuspended in CryoStor® CS10 ([…]) and frozen. On the day before the assay, PBMCs were thawed in warm assay buffer (RPMI+10% FBS) and resuspended in assay buffer+10 ng/ml hIL3 (R&D Systems). Cells were rested at 37° C.+5% CO2 overnight. The following day, cells were spun down and resuspended in fresh assay buffer. 300,000 cells were added to each well of plates containing test compound. For test compound preparation, each compound was initially diluted to 1 mM in DMSO and further diluted in assay buffer. A 4-fold 11-point titration starting from 15 μM was performed. Cells were incubated with test compound at 37° C.+5% CO2 for 24 hours before supernatant was harvested. Human interleukin 6 (hIL6), human tumor necrosis factor alpha (hTNFα), and human interferon alpha (hIFNα) were quantified in the supernatant using homogeneous time resolved fluorescence (Cisbio).
(§1) Each assay included a positive control compound (referred to herein as “benchmark,” see, e.g., TABLE 3 below, and taken from International Patent Publication No. WO2017/072662, structure shown below) and a negative control (growth medium). […] The structure of the benchmark compound from International Patent Publication No. WO 2017/072662 is as follows: […]

hTLR7 = target: T1, hTLR7 (Homo sapiens, UniProt Q9NYK1); assay: Reporter Gene Assay (RGA), HEK-Blue hTLR7 reporter cells, SEAP readout; settings: overnight incubation, SEAP absorbance 620 nm
T1 construct: host or cells: HEK-Blue hTLR7 reporter cells (HEK293-derived, own knowledge)
T1 sequence (Q9NYK1 27-1049): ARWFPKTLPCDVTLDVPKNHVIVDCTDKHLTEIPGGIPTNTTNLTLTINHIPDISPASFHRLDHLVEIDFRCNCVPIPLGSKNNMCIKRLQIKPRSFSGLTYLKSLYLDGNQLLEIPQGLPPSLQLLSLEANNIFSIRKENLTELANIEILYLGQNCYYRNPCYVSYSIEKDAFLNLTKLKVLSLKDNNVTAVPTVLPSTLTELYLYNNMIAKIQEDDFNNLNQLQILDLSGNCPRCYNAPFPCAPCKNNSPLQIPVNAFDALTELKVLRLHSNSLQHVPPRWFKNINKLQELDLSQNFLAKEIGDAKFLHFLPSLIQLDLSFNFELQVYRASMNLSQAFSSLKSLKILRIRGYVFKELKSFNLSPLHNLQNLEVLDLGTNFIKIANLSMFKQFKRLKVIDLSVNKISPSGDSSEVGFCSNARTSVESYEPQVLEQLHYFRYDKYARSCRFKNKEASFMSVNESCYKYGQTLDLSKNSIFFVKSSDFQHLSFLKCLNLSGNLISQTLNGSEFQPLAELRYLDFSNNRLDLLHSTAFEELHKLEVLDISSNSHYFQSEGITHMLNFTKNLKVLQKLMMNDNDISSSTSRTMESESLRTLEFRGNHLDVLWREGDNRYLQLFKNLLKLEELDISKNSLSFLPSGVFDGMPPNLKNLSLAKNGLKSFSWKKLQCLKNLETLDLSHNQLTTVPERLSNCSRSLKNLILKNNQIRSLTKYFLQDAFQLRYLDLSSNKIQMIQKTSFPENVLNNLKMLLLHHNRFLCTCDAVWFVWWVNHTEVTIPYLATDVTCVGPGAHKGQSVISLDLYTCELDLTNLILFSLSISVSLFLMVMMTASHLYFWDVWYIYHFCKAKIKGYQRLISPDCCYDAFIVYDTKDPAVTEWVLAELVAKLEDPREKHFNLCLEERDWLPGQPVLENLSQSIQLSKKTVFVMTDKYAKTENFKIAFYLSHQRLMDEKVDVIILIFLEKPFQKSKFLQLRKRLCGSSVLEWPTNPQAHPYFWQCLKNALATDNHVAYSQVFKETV
Method: (§2) 1.5×10^4 HEK-Blue™ hTLR7 (Invivogen, San Diego, CA) or HEK-Blue™ mTLR7 (Invivogen, San Diego, CA) reporter cells were treated with a titration series of test compound (4-fold titration from […], 11 points). Compounds were initially diluted to 1 mM in DMSO and subsequently serial-diluted in assay media (HEK-Blue™ Detection; Invivogen, San Diego, CA). Cells with test compound were incubated overnight at 37° C.+5% CO2, and the amount of secreted embryonic alkaline phosphatase (SEAP) was determined by measuring absorbance (620 nm) using a Synergy™ H1 microplate reader.
as §1

mTLR7 = target: T2, mTLR7 (Mus musculus, UniProt P58681); assay: Reporter Gene Assay (RGA), HEK-Blue mTLR7 reporter cells, SEAP readout; settings: overnight incubation, SEAP absorbance 620 nm
T2 construct: host or cells: HEK-Blue mTLR7 reporter cells (HEK293-derived, own knowledge)
T2 sequence (P58681 27-1050): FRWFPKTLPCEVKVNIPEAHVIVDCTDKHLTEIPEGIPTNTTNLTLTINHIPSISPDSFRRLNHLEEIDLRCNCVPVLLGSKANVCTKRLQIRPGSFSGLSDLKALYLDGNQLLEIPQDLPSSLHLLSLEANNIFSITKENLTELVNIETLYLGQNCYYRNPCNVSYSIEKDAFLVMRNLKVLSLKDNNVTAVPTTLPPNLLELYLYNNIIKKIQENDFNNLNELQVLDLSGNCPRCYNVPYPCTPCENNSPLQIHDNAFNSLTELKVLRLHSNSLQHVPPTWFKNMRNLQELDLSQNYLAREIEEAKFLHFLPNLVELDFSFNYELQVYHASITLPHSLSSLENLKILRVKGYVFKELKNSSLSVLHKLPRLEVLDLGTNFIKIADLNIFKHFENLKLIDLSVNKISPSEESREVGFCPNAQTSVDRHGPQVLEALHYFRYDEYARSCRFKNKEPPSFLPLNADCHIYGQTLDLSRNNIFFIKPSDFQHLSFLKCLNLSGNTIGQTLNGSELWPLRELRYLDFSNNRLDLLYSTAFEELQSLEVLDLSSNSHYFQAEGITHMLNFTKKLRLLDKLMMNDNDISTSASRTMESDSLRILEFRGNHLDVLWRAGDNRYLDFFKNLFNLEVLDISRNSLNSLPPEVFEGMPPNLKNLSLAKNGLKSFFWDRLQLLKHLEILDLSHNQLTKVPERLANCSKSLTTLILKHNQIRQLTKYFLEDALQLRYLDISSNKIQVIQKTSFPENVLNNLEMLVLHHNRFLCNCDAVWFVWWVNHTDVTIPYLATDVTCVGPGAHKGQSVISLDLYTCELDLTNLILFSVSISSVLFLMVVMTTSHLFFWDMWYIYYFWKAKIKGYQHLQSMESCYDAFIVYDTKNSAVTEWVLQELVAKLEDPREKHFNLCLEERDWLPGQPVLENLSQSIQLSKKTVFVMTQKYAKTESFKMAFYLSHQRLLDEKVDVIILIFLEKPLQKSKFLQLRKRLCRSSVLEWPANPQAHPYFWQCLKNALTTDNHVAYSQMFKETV
Method: as §2, §1

Mouse splenocytes = assay: Mouse Splenocyte Assay, cytokine release (HTRF); settings: 24 hours, mIL6 in supernatant; for EC50: Splenocyte, read-out: Splenocyte IL6 EC50
Method: Mouse splenocytes were isolated from fresh mouse spleens. Briefly, spleens were harvested from female balb/c nude mice and transferred to a 70 μm cell strainer. The cell strainer was subsequently placed in a 6-well suspension culture plate containing 5 mL media (RPMI+10% FBS). The spleens were crushed against the cell strainer using the flat end of a 10 mL syringe plunger and the cell strainer was washed with 5 mL media. The cell strainer was discarded, and the cell suspension was washed in PBS. Red blood cells were removed using PharmaLyse (BD). The cell suspension was washed in media, resuspended in CryoStor® CS10 ([…]) and frozen. On assay day, mouse splenocytes were thawed in warm assay buffer (RPMI+10% FBS). Cells were spun down and resuspended in fresh assay buffer. 100,000 cells were added to each well of plates containing test compound. For test compound preparation, each compound was initially diluted to 1 mM in DMSO and further diluted in assay buffer. A 4-fold 11-point titration starting from 15 μM was performed. Cells were incubated with test compound at 37° C.+5% CO2 for 24 hours before supernatant was harvested. Murine IL6 (mIL6) and murine TNFα (mTNFα) were quantified in the supernatant using homogeneous time resolved fluorescence (Cisbio).
as §1

[2] = hIFNα in supernatant, EC50 values approximated and divided into groups, read-out: PBMC IFNa EC50
[3] = hIL6 in supernatant, read-out: PBMC IL6 EC50

## CCCCCNc1nc(N)c2nc(O)n(Cc3ccc(CN)cc3)c2n1 [Compound 183, 6-amino-9-(4-(aminomethyl)benzyl)-2-(pentylamino)-9H-purin-8-ol]
[1]; [2]
  EC50: > 10 nM
[1]; [3]
  EC50: 291 nM
hTLR7
  EC50: 145 nM
mTLR7
  EC50: 60.6 nM
Mouse splenocytes
  EC50: 235 nM

## CCCCCNc1nc(N)nc2ccn(Cc3ccc(CN4CCN(CCNC(=O)CC(SCC(N)C(=O)O)C(=O)O)CC4)cc3OC)c12 (centres unmarked) [Benchmark, reference compound]
[1]; [2]
  EC50: 1 to 10 nM
[1]; [3]
  EC50: 207 nM
Mouse splenocytes
  EC50: 222 nM

## CCOc1nc(N)c2nc(O)n(Cc3ccc(CNCc4ccc(CN)cc4)cc3OC)c2n1 [Compound 105, 6-amino-9-(4-(((4-(aminomethyl)benzyl)amino)methyl)-2-methoxybenzyl)-2-ethoxy-9H-purin-8-ol]
[1]; [2]
  EC50: < 0.1 nM
[1]; [3]
  EC50: 394 nM
hTLR7
  EC50: 7 nM
mTLR7
  EC50: 2.4 nM
Mouse splenocytes
  EC50: 26.2 nM

## CCOc1nc(N)c2nc(O)n(Cc3ccc(CN[C@H](CO)Cc4ccccc4)cc3OC)c2n1 [Compound 118, (S)-6-amino-2-ethoxy-9-(4-(((1-hydroxy-3-phenylpropan-2-yl)amino)methyl)-2-methoxybenzyl)-9H-purin-8-ol]
[1]; [2]
  EC50: 0.1 to 1 nM
[1]; [3]
  EC50: 1400 nM
hTLR7
  EC50: 2.04 nM
mTLR7
  EC50: 11.4 nM
Mouse splenocytes
  EC50: 639 nM

## CCOc1nc(N)c2nc(O)n(Cc3ccc(CN(CC(=O)O)CC(=O)O)cc3OC)c2n1 [Compound 120, 2,2′-((4-((6-amino-2-ethoxy-8-hydroxy-9H-purin-9-yl)methyl)-3-methoxy-benzyl)azanediyl) diacetic Acid]
[1]; [2]
  EC50: > 10 nM
[1]; [3]
  EC50: 524 nM
hTLR7
  EC50: 33.2 nM
mTLR7
  EC50: 637 nM
Mouse splenocytes
  EC50: 881 nM

## CCCCOc1nc(N)c2nc(O)n(Cc3ccc(CNC(CO)[C@@H](C)CC)cc3OC)c2n1 (stereo in doubt) [Compound 161, 6-amino-2-butoxy-9-(4-((((2R,3S)-1-hydroxy-3-methylpentan-2-yl)amino)-methyl)-2-methoxybenzyl)-9H-purin-8-ol]
[1]; [2]
  EC50: < 0.1 nM
[1]; [3]
  EC50: 16.7 nM
hTLR7
  EC50: < 0.1 nM
mTLR7
  EC50: < 0.1 nM
Mouse splenocytes
  EC50: 0.3 nM

## CCOc1nc(N)c2nc(O)n(Cc3ccc(CNCC(C)(C)O)cc3OC)c2n1 [Compound 101, 6-amino-2-ethoxy-9-(4-(((2-hydroxy-2-methylpropyl)amino)methyl)-2-methoxybenzyl)-9H-purin-8-ol]
[1]; [2]
  EC50: 0.1 to 1 nM
[1]; [3]
  EC50: 127 nM
hTLR7
  EC50: 57 nM
mTLR7
  EC50: 47.7 nM
Mouse splenocytes
  EC50: 154 nM

## CCOc1nc(N)c2nc(O)n(Cc3ccc(CN4CCNCC4)cc3OC)c2n1 [Compound 100, 6-amino-2-ethoxy-9-(2-methoxy-4-(piperazin-1-ylmethyl)benzyl)-9H-purin-8-ol]
[1]; [2]
  EC50: 1 to 10 nM
[1]; [3]
  EC50: 240 nM
hTLR7
  EC50: 6.3 nM
mTLR7
  EC50: 77.9 nM
Mouse splenocytes
  EC50: 2940 nM

## CCCCOc1nc(N)c2nc(O)n(Cc3ccc(CCN4CCC(N)CC4)cc3OC)c2n1 [Compound 181, 6-amino-9-(4-(2-(4-aminopiperidin-1-yl)ethyl)-2-methoxybenzyl)-2-butoxy-9H-purin-8-ol]
[1]; hIL6 in supernatant
  PBMC IL6 EC50 (nM): inactive
[1]; [2]
  EC50: > 10 nM
hTLR7
  EC50: 4.5 nM
Mouse splenocytes
  EC50: 235 nM

## CCOc1nc(N)c2nc(O)n(Cc3ccc(CN[C@@H](Cc4ccccc4)C(=O)O)cc3OC)c2n1 [Compound 117, (4-((6-amino-2-ethoxy-8-hydroxy-9H-purin-9-yl)methyl)-3-methoxybenzyl)-L-phenylalanine]
[1]; hIL6 in supernatant
  PBMC IL6 EC50 (nM): inactive
[1]; [2]
  EC50: > 10 nM
hTLR7
  EC50: 13000 nM
Mouse splenocytes
  Splenocyte IL6 EC50 (nM): inactive

## CCCCOc1nc(N)c2nc(O)n(Cc3ccc(CCN4CCC(CCN)CC4)cc3OC)c2n1 [Compound 178, 6-amino-9-(4-(2-(4-(2-aminoethyl)piperidin-1-yl)ethyl)-2-methoxybenzyl)-2-butoxy-9H-purin-8-ol]
[1]; [2]
  EC50: 1 to 10 nM
[1]; [3]
  EC50: 284 nM
hTLR7
  EC50: 144 nM
Mouse splenocytes
  EC50: 245 nM
